# Source: ChEMBL document CHEMBL1201862, “PubChem BioAssay data set” (2004)
# Activity calls are given as the source filed them.
# Key:
# [1] = Luminescence Cell-Based Dose Response HTS to Identify Activators of Luciferase Translation or Activity in H4 […] Cells. [Related pubchem assays: 1829 (Project Summary), 1814 (Primary HTS)]; assay type: functional
# [2] = cytotoxicity in NIH3T3 fibroblasts, dose response, cytotoxicity control for HSP40 inhibitor project, cell-based, CellTiter-Glo luminescence, cherry-pick, set 2 (AID 624265); assay type: functional
# [3] = HepG2 cell cytotoxicity, dose response, cytotoxicity control for non-replicating M. tuberculosis project (AID 489018); assay type: functional; conditions: Mycobacterium tuberculosis
# [4] = target: G-protein coupled receptor 55 (Homo sapiens, UniProt Q9Y2T6); assay: GPR55 antagonists blocking LPI-driven arrestin recruitment, primary screen, imaging, U2OS, beta-arrestin-GFP, LPI agonist (AID 2013); assay type: functional;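 note: antagonist potency measured as reduced agonist-driven arrestin aggregation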
# Chain of G-protein coupled receptor 55 (Q9Y2T6 whole entry): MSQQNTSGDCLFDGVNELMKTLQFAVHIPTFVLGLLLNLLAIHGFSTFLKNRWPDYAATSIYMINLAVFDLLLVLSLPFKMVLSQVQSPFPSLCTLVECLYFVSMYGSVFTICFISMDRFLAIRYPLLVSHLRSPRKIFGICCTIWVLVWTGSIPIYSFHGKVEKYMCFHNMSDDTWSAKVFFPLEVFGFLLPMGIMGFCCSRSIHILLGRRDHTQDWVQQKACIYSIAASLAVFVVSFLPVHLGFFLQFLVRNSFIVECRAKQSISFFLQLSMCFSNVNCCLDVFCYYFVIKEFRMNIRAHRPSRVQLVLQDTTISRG
# [5] = THP-1 cell cytotoxicity, dose response, cytotoxicity control for non-replicating M. tuberculosis project (AID 489025); assay type: functional
# Streptococcus = assay: Group A Streptococcus viability loss, dose response, counter-screen for streptokinase expression inhibitor project, luminescence, BacTiterGlo (AID 1915); assay type: functional, organism-based;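 note: potency for reduction of bacterial viability or growth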
# [6] = Luminescence Cell-Based Dose Confirmation HTS to Identify Activators of 5'UTR Stem-Loop Driven Alpha-Synuclein mRNA Translation in H4 Neuroglioblastoma Cells. [Related pubchem assays: 1829 (Project Summary), 1814 (Primary HTS)]; assay type: functional
# [7] = Vero E6 cell cytotoxicity, dose response, cytotoxicity control for non-replicating M. tuberculosis project, secondary assay (AID 492998); assay type: functional, VeroE6; conditions: Vero C1008
# [8] = microbe, parasite or virus in culture; assay type: functional; conditions: Mycobacterium tuberculosis
# [9] = CFTR ΔF508 corrector activity in bronchial cells, dose response, human bronchial epithelial cells, plate reader, cherry-pick, two tests (AID 743267); assay type: functional, cell-based
# Streptokinase A = target: T1, Streptokinase A (Streptococcus pyogenes serotype M1, UniProt P10520); assay: S. pyogenes streptokinase expression inhibitors, potency, dose response, plasminogen activation absorbance, OD405 (AID 1914); assay type: functional, Streptococcus pyogenes M1 GAS;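 note: secreted streptokinase activity via plasminogen activation per viability signal from cell pellet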
# T1 sequence (P10520 whole entry): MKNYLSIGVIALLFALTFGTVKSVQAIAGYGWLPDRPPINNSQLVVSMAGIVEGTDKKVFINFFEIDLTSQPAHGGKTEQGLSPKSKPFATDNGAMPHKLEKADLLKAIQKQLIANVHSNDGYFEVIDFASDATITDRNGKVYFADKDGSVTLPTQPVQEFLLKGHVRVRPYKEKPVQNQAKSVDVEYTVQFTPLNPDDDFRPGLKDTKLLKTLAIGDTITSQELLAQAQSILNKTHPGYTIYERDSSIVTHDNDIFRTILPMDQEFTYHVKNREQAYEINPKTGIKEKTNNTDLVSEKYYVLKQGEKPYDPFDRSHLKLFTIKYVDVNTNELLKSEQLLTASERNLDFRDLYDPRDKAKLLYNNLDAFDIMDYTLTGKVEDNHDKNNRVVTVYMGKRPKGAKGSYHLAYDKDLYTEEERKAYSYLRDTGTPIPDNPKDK
# cells = assay type: functional
# [10] = tested on: Streptococcus sp. 'group A'; assay: growth inhibition of control SK(-) GAS strain, dose response, counter-screen for streptokinase expression inhibitor project, luminescence, kanamycin, BacTiterGlo, confirmation (AID 1900); assay type: functional, organism-based
# H4 = assay: Luminescence Cell-Based Dose Response HTS to Identify Activators of 5'UTR Stem-Loop Driven Prion Protein mRNA Translation in H4 Neuroglioblastoma Cells. [Related pubchem assays: 1829 (Project Summary), 1814 (Primary HTS)]; assay type: functional; conditions: Homo sapiens
# [11] = inhibitors of fibronectin matrix deposition, dose response, AH1F cells, Alexa488-FN fluorescence, cherry-picks (AID 1035475); assay type: functional, cell-based
# NS3 = NS3 (Hepatitis C virus, UniProt A3EZJ3); assay: HCV NS3 helicase inhibitor potency, dose response, biochemical, fluorescence polarization, ChemBridge library (AID 743264)
# Chain of NS3 (A3EZJ3 whole entry): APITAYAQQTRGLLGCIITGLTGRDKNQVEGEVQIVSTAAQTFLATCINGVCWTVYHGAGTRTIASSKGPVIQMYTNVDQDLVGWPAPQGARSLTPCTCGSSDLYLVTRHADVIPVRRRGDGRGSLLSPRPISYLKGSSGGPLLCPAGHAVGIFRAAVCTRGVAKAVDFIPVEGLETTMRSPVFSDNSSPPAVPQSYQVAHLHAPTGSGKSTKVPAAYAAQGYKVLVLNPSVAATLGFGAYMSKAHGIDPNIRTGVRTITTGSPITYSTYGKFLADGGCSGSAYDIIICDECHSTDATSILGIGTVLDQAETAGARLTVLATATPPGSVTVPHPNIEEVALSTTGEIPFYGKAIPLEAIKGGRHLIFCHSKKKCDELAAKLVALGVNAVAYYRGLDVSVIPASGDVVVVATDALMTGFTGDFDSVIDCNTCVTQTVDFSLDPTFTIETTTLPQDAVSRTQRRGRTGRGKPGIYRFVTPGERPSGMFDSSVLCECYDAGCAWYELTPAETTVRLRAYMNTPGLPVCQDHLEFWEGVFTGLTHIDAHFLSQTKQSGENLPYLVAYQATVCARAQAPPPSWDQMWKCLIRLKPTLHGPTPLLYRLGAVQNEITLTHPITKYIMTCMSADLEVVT
# [12] = Late stage assay provider results from the probe development effort to identify inhibitors of the Plasmodium falciparum M18 Aspartyl Aminopeptidase (M18AAP): radiolabel-based cell-based dose response assay to identify compounds that inhibit P. falciparum growth in RBCs, Set 2..; assay type: functional
# HeLa = assay: HeLa cell cytotoxicity, dose response, cytotoxicity control, ATP luminescence, cherry-pick samples (AID 687004); assay type: functional, cell-based; conditions: Homo sapiens
# [13] = HepG2 cell cytotoxicity, dose response, cytotoxicity control, cherry-picks, set 5 (AID 1053118); assay type: functional, cell-based
# [14] = HEK293 cell cytotoxicity, dose response, cytotoxicity control, cherry-picks, set 5 (AID 1053117); assay type: functional, cell-based
# [15] = cytotoxicity in HEK293 cells, dose response, cytotoxicity control, cell-based, cherry-picked samples (AID 1053185); assay type: functional
# [16] = P. falciparum Dd2 growth inhibitors, dose response, SYBR Green, dry powder samples, set 9 (AID 1159568); assay type: functional, cell-based
# [17] = cytotoxicity in HeLa cells, dose response, cytotoxicity control, cell-based, 24 h, dry powder, set 2 (AID 651774); assay type: functional
# [18] = HeLa cell cytotoxicity, dose response, cytotoxicity control, 24 h, plate reader, powder samples, set 3 (AID 651864); assay type: functional, cell-based
# [19] = T. cruzi intracellular amastigote growth inhibition, dose response, imaging, CA-I/72 strain, bovine embryo skeletal muscle, dry powder (AID 651885); assay type: functional, cell-based
# [20] = TRPM1 promoter luciferase reporter signal decrease, dose response, MITF inhibitor project, cell-based, SK-MEL-5, dry powder, set 8 (AID 624430); assay type: functional
# [21] = cytotoxicity in primary human melanocytes, dose response, cytotoxicity control, cell-based, plate reader, dry powder (AID 651920); assay type: functional
# [22] = MITF Orthogonal Assay: MALME3 CTG Assay Measured in Cell-Based System Using Plate Reader - 2084-04_Inhibitor_Dose_DryPowder_Activity_Set6.; assay type: functional; conditions: MALME-3
# [23] = A375 melanoma cell viability loss, dose response, counter-screen for MITF modulator project, CellTiter-Glo luminescence, dry powder, set 9 (AID 651591); assay type: functional, cell-based; conditions: A-375
# [24] = MITF: Counter assay: A375 proliferation Measured in Cell-Based System Using Plate Reader - 2084-03_Inhibitor_Dose_DryPowder_Activity_Set8.; assay type: functional; conditions: A-375
# [25] = MITF Orthogonal Assay: SK-MEL-5 CTG Assay Measured in Cell-Based System Using Plate Reader - 2084-02_Inhibitor_Dose_DryPowder_Activity_Set7.; assay type: functional
# [26] = MALME3 melanoma cell viability reduction, dose response, orthogonal assay for MITF inhibitor project, CellTiter-Glo luminescence, dry powder, set 5 (AID 651584); assay type: functional, cell-based; conditions: MALME-3
# [27] = SK-MEL-5 parental cell viability reduction, dose response, orthogonal assay for MITF inhibitor project, CellTiter-Glo luminescence, dry powder, set 8 (AID 651586); assay type: functional, cell-based
smiles,measurement,setting,value
NC(=O)N=Nc1c2nc3ccccc3[nH]c-2c2ccccc12,EC50,[1],> 120 µM (not active)
same,AbsAC35_uM,[2],58.66 µM
same,CC50,[3],> 20 µM (active)
same,IC50,[4],2.88 µM (active)
same,CC50,[5],23.5 µM (active)
same,EC50,Streptococcus,> 150 µM (not active)
same,EC50,[6],13 µM (active)
same,CC50,[7],11.9 µM (active)
same,CC50,[8],7.97 µM (active)
same,AC50,[9],8.41 µM (active)
same,EC50,Streptokinase A,46.2 µM (active)
same,IC50,cells,11.1 µM (active)
same,EC50,[10],7.71 µM (active)
same,EC50,H4,> 120 µM (not active)
CC(=O)Nc1cccc(-c2ccnc3c2CC(C)(C(=O)Nc2cccc(C(F)(F)F)c2)O3)c1 (stereo not drawn),AC50,[11],22.7 µM (active)
O=C1NC(=O)N(c2ccccc2F)C(=O)/C1=C/c1ccc(-c2cc(C(=O)O)ccc2Cl)o1,IC50,NS3,35 µM (inactive)
COc1ccc(CCNc2ccnc3cc(Cl)ccc23)cc1OC,IC50,[12],0.66 µM (active)
CC(C)NC(=O)Nc1ccc2c(c1)CC(=O)N([C@@H](C)CO)C[C@@H](C)[C@@H](CN(C)Cc1ccc(Oc3ccccc3)cc1)O2,AC50,HeLa,38.8 µM (active)
COc1cccc(-c2ccc3c(c2)[C@H]2[C@H](CCN2S(=O)(=O)c2cccc(OC)c2)[C@@H](CO)N3)c1,AC50,[13],> 52 µM (inactive)
same,AC50,[14],29.7 µM (active)
C[C@H](CO)N1C[C@H](C)[C@@H](CN(C)Cc2ccccc2)Oc2c(NC(=O)Cc3cn(C)c4ccccc34)cccc2C1=O,AC50,[15],40.1 µM (active)
same,AC50,[16],1.97 µM (active)
CCC(CC)NC(=O)Cc1ccc(-c2ccccc2)cc1,AC50,[17],> 70 µM (inactive)
same,AC50,[18],> 160 µM (inactive)
CC(C)N(C)C(=O)c1cccc(NC(=O)c2ccncc2)c1OCCCN(C)Cc1ccc(Cl)cc1,IC50,[19],0.385 µM (active)
Cc1ccc(NC2=CC(=O)c3ccccc3C2=O)cc1,AC50,[20],6.58 µM (active)
same,AC50,[21],> 70 µM (inactive)
same,AC50,[22],13.5 µM (active)
same,AC50,[23],> 70 µM (inactive)
same,AC50,[24],> 70 µM (inactive)
same,AC50,[25],1.24 µM (active)
same,AC50,[26],13.5 µM (active)
same,AC50,[27],36.1 µM (active)
